≈ marks a conversion by molar mass, not a printed value.
Columns and labels:
[1] = tested on: Micrococcus luteus ATCC 10240; assay: Broth microdilution MIC/MBC; details: Micrococcus luteus, ATCC10240
[2] = tested on: Proteus mirabilis ATCC 12453; assay: Broth microdilution MIC/MBC; details: ATCC12453
[3] = tested on: Salmonella typhimurium ATCC 14028; assay: Broth microdilution MIC/MBC
HeLa cell line = assay: MTT cytotoxicity assay; format: cell-based
Experimental: (§1) Among all the newly synthesized compounds, four compounds designated as: 14, 20, 21 and 27 were selected for further testing of their cytotoxic properties at the doses of 10, 25, 50, 75 and 100 µM. The cytotoxic properties of the above compounds were tested on the cancer cell lines, i.e., A549 (ECACC 86012804) (non-small-cell lung cancer), T47D (ECACC 85102201) (breast cancer), HeLa (ATCC® CCL-2™) (cervical cancer) and normal line L929 (NCTC clone 929, ATCC® CCL-1™) (mouse fibroblasts) using the MTT test for 24- and 48 h cultures.
(§2) A549 (ECACC 86012804) (non-small-cell lung cancer) and T47D (ECACC 85102201) (breast cancer) were obtained from ECACC and propagated in Dulbecco’s Minimal Essential Medium, supplemented with 2 mM of glutamine, antibiotics ([…] streptomycin, 1% of 100 U/L penicillin) and 10% Fetal Bovine Serum. HeLa (ATCC® CCL-2™) (cervical cancer) and L929 (NCTC clone 929, ATCC® CCL-1™) (mouse fibroblasts) cell lines were obtained from ATCC and propagated in the Eagle Minimal Essential Medium supplemented with antibiotics ([…] streptomycin, 1% of 100 U/L penicillin) and with 10% and 5% FBS, respectively. The cell line was routinely grown in 75 cm^2 tissue culture flasks and kept in an incubator (humidified atmosphere of 5% CO2 at 37 °C). All examined cell lines were tested against mycoplasma contamination with microbiological assays.
(§3) The cell viability of tested compounds (14, 20, 21 and 27) was assessed by the MTT assay. In brief, the exponentially growing cells were plated in 100 μL/well in 96-well plates. After 24 h culturing, the cells were treated with different concentrations of compounds (range 10–100 μM). After 24 and 48 h of incubation, 10 μL of 5 mg/mL MTT was added to each well and the plates were incubated at 37 °C for additional 4 h. The medium was subsequently removed, the purple-colored precipitates of formazan were dissolved in 100 μL of DMSO. The color absorbance was recorded at 570 nm using a BioTek model EPOCH ELISA plate reader. All experiments were performed in triplicate. The absorbance values were in the range of linearity of the Lambert–Beer law.

T47D cell line = assay: MTT cytotoxicity assay; format: cell-based
Experimental: as §1, §2, §3

A549 cell line = assay: MTT cytotoxicity assay; format: cell-based
Experimental: as §1, §2, §3

O=C(N/N=C/c1cc(Cl)cc(I)c1O)c1cccc(I)c1 [Compound 20, N-[(5-chloro-2-hydroxy-3-iodophenyl)methylidene]-3-iodobenzohydrazide]
MBC [1]: 7.81 µg/mL (≈ 14.8 µM) | MIC [1]: 1.95 µg/mL (≈ 3.7 µM) | MBC [2]: 1000 µg/mL (≈ 1900 µM) | MBC/MIC [2]: 2 | MIC [2]: 500 µg/mL (≈ 950 µM) | MBC ([3]; Salmonella enterica): > 1000 µg/mL | MIC ([3]; Salmonella enterica): 1000 µg/mL (≈ 1900 µM) | MBC/MIC ([3]; Salmonella typhimurium ATCC 14028): > 1 | cell proliferation (HeLa cell line; 24h, 10 µM, Repeat No 1): 87% | cell proliferation (HeLa cell line; 24h, 10 µM, Repeat No 2): 92% | cell proliferation (HeLa cell line; 24h, 25 µM, Repeat No 1): 81% | cell proliferation (HeLa cell line; 24h, 25 µM, Repeat No 2): 88% | cell proliferation (HeLa cell line; 24h, 50 µM, Repeat No 1): 78% | cell proliferation (HeLa cell line; 24h, 50 µM, Repeat No 2): 83% | cell proliferation (HeLa cell line; 24h, 75 µM, Repeat No 1): 85% | cell proliferation (HeLa cell line; 24h, 75 µM, Repeat No 2): 91% | cell proliferation (HeLa cell line; 24h, 100 µM, Repeat No 1): 81% | cell proliferation (HeLa cell line; 24h, 100 µM, Repeat No 2): 79% | cell proliferation (HeLa cell line; 48h, 10 µM, Repeat No 1): 88% | cell proliferation (HeLa cell line; 48h, 10 µM, Repeat No 2): 91% | cell proliferation (HeLa cell line; 48h, 25 µM, Repeat No 1): 73% | cell proliferation (HeLa cell line; 48h, 25 µM, Repeat No 2): 75% | cell proliferation (HeLa cell line; 48h, 50 µM, Repeat No 1): 87% | cell proliferation (HeLa cell line; 48h, 50 µM, Repeat No 2): 91% | cell proliferation (HeLa cell line; 48h, 75 µM, Repeat No 1): 99% | cell proliferation (HeLa cell line; 48h, 75 µM, Repeat No 2): 96% | cell proliferation (HeLa cell line; 48h, 100 µM, Repeat No 1): 93% | cell proliferation (HeLa cell line; 48h, 100 µM, Repeat No 2): 94% | cell proliferation (T47D cell line; 24h, 10 µM, Repeat No 1): 78% | cell proliferation (T47D cell line; 24h, 10 µM, Repeat No 2): 81% | cell proliferation (T47D cell line; 24h, 25 µM, Repeat No 1): 76% | cell proliferation (T47D cell line; 24h, 25 µM, Repeat No 2): 72% | cell proliferation (T47D cell line; 24h, 50 µM, Repeat No 1): 77% | cell proliferation (T47D cell line; 24h, 50 µM, Repeat No 2): 69% | cell proliferation (T47D cell line; 24h, 75 µM, Repeat No 1): 77% | cell proliferation (T47D cell line; 24h, 75 µM, Repeat No 2): 73% | cell proliferation (T47D cell line; 24h, 100 µM, Repeat No 1): 87% | cell proliferation (T47D cell line; 24h, 100 µM, Repeat No 2): 82% | cell proliferation (T47D cell line; 48h, 10 µM, Repeat No 1): 80% | cell proliferation (T47D cell line; 48h, 10 µM, Repeat No 2): 78% | cell proliferation (T47D cell line; 48h, 25 µM, Repeat No 1): 79% | cell proliferation (T47D cell line; 48h, 25 µM, Repeat No 2): 75% | cell proliferation (T47D cell line; 48h, 50 µM, Repeat No 1): 76% | cell proliferation (T47D cell line; 48h, 50 µM, Repeat No 2): 73% | cell proliferation (T47D cell line; 48h, 75 µM, Repeat No 1): 83% | cell proliferation (T47D cell line; 48h, 75 µM, Repeat No 2): 86% | cell proliferation (T47D cell line; 48h, 100 µM, Repeat No 1): 81% | cell proliferation (T47D cell line; 48h, 100 µM, Repeat No 2): 79% | cell proliferation (A549 cell line; A549, 24h, 10 µM, Repeat No 1): 87% | cell proliferation (A549 cell line; A549, 24h, 10 µM, Repeat No 2): 92% | cell proliferation (A549 cell line; A549, 24h, 25 µM, Repeat No 1): 83% | cell proliferation (A549 cell line; A549, 24h, 25 µM, Repeat No 2): 91% | cell proliferation (A549 cell line; A549, 24h, 50 µM, Repeat No 1): 83% | cell proliferation (A549 cell line; A549, 24h, 50 µM, Repeat No 2): 87% | cell proliferation (A549 cell line; A549, 24h, 75 µM, Repeat No 1): 91% | cell proliferation (A549 cell line; A549, 24h, 75 µM, Repeat No 2): 95% | cell proliferation (A549 cell line; A549, 24h, 100 µM, Repeat No 1): 90% | cell proliferation (A549 cell line; A549, 24h, 100 µM, Repeat No 2): 93% | cell proliferation (A549 cell line; A549, 48h, 10 µM, Repeat No 1): 88% | cell proliferation (A549 cell line; A549, 48h, 10 µM, Repeat No 2): 84% | cell proliferation (A549 cell line; A549, 48h, 25 µM, Repeat No 1): 79% | cell proliferation (A549 cell line; A549, 48h, 25 µM, Repeat No 2): 83% | cell proliferation (A549 cell line; A549, 48h, 50 µM, Repeat No 1): 88% | cell proliferation (A549 cell line; A549, 48h, 50 µM, Repeat No 2): 92% | cell proliferation (A549 cell line; A549, 48h, 75 µM, Repeat No 1): 99% | cell proliferation (A549 cell line; A549, 48h, 75 µM, Repeat No 2): 95% | cell proliferation (A549 cell line; A549, 48h, 100 µM, Repeat No 1): 91% | cell proliferation (A549 cell line; A549, 48h, 100 µM, Repeat No 2): 93%

O=C(N/N=C/c1cc(Br)cc(Br)c1O)c1cccc(I)c1 [Compound 21, N-[(3,5-dibromo-2-hydroxyphenyl)methylidene]-3-iodobenzohydrazide]
MBC [1]: 15.6 µg/mL (≈ 29.8 µM) | MIC [1]: 3.91 µg/mL (≈ 7.46 µM) | MIC [2]: > 1000 µg/mL | MIC ([3]; Salmonella enterica): > 1000 µg/mL | cell proliferation (HeLa cell line; 24h, 10 µM, Repeat No 1): 89% | cell proliferation (HeLa cell line; 24h, 10 µM, Repeat No 2): 88% | cell proliferation (HeLa cell line; 24h, 25 µM, Repeat No 1): 89% | cell proliferation (HeLa cell line; 24h, 25 µM, Repeat No 2): 92% | cell proliferation (HeLa cell line; 24h, 50 µM, Repeat No 1): 86% | cell proliferation (HeLa cell line; 24h, 50 µM, Repeat No 2): 104% | cell proliferation (HeLa cell line; 24h, 75 µM, Repeat No 1): 104% | cell proliferation (HeLa cell line; 24h, 75 µM, Repeat No 2): 87% | cell proliferation (HeLa cell line; 24h, 100 µM, Repeat No 1): 87% | cell proliferation (HeLa cell line; 24h, 100 µM, Repeat No 2): 91% | cell proliferation (HeLa cell line; 48h, 10 µM, Repeat No 1): 86% | cell proliferation (HeLa cell line; 48h, 10 µM, Repeat No 2): 93% | cell proliferation (HeLa cell line; 48h, 25 µM, Repeat No 1): 101% | cell proliferation (HeLa cell line; 48h, 25 µM, Repeat No 2): 97% | cell proliferation (HeLa cell line; 48h, 50 µM, Repeat No 1): 81% | cell proliferation (HeLa cell line; 48h, 50 µM, Repeat No 2): 87% | cell proliferation (HeLa cell line; 48h, 75 µM, Repeat No 1): 91% | cell proliferation (HeLa cell line; 48h, 75 µM, Repeat No 2): 89% | cell proliferation (HeLa cell line; 48h, 100 µM, Repeat No 1): 88% | cell proliferation (HeLa cell line; 48h, 100 µM, Repeat No 2): 92% | cell proliferation (T47D cell line; 24h, 10 µM, Repeat No 1): 82% | cell proliferation (T47D cell line; 24h, 10 µM, Repeat No 2): 84% | cell proliferation (T47D cell line; 24h, 25 µM, Repeat No 1): 83% | cell proliferation (T47D cell line; 24h, 25 µM, Repeat No 2): 88% | cell proliferation (T47D cell line; 24h, 50 µM, Repeat No 1): 78% | cell proliferation (T47D cell line; 24h, 50 µM, Repeat No 2): 76% | cell proliferation (T47D cell line; 24h, 75 µM, Repeat No 1): 71% | cell proliferation (T47D cell line; 24h, 75 µM, Repeat No 2): 79% | cell proliferation (T47D cell line; 24h, 100 µM, Repeat No 1): 73% | cell proliferation (T47D cell line; 24h, 100 µM, Repeat No 2): 78% | cell proliferation (T47D cell line; 48h, 10 µM, Repeat No 1): 79% | cell proliferation (T47D cell line; 48h, 10 µM, Repeat No 2): 71% | cell proliferation (T47D cell line; 48h, 25 µM, Repeat No 1): 79% | cell proliferation (T47D cell line; 48h, 25 µM, Repeat No 2): 81% | cell proliferation (T47D cell line; 48h, 50 µM, Repeat No 1): 81% | cell proliferation (T47D cell line; 48h, 50 µM, Repeat No 2): 79% | cell proliferation (T47D cell line; 48h, 75 µM, Repeat No 1): 69% | cell proliferation (T47D cell line; 48h, 75 µM, Repeat No 2): 74% | cell proliferation (T47D cell line; 48h, 100 µM, Repeat No 1): 78% | cell proliferation (T47D cell line; 48h, 100 µM, Repeat No 2): 71% | cell proliferation (A549 cell line; A549, 24h, 10 µM, Repeat No 1): 88% | cell proliferation (A549 cell line; A549, 24h, 10 µM, Repeat No 2): 99% | cell proliferation (A549 cell line; A549, 24h, 25 µM, Repeat No 1): 88% | cell proliferation (A549 cell line; A549, 24h, 25 µM, Repeat No 2): 88% | cell proliferation (A549 cell line; A549, 24h, 50 µM, Repeat No 1): 92% | cell proliferation (A549 cell line; A549, 24h, 50 µM, Repeat No 2): 101% | cell proliferation (A549 cell line; A549, 24h, 75 µM, Repeat No 1): 103% | cell proliferation (A549 cell line; A549, 24h, 75 µM, Repeat No 2): 99% | cell proliferation (A549 cell line; A549, 24h, 100 µM, Repeat No 1): 87% | cell proliferation (A549 cell line; A549, 24h, 100 µM, Repeat No 2): 94% | cell proliferation (A549 cell line; A549, 48h, 10 µM, Repeat No 1): 92% | cell proliferation (A549 cell line; A549, 48h, 10 µM, Repeat No 2): 99% | cell proliferation (A549 cell line; A549, 48h, 25 µM, Repeat No 1): 94% | cell proliferation (A549 cell line; A549, 48h, 25 µM, Repeat No 2): 91% | cell proliferation (A549 cell line; A549, 48h, 50 µM, Repeat No 1): 97% | cell proliferation (A549 cell line; A549, 48h, 50 µM, Repeat No 2): 91% | cell proliferation (A549 cell line; A549, 48h, 75 µM, Repeat No 1): 83% | cell proliferation (A549 cell line; A549, 48h, 75 µM, Repeat No 2): 87% | cell proliferation (A549 cell line; A549, 48h, 100 µM, Repeat No 1): 91% | cell proliferation (A549 cell line; A549, 48h, 100 µM, Repeat No 2): 87%
